Source: patent US8765677B2 (priority 2009, dated 2014)
“Also recorded” adds a separate entry of the source. Where a SMILES comes first, the peptide text is derived from it.

Columns and labels:
[1] = tested on: native VGCCs in DRG sensory neurons; format: cell-based, rat; details: for maximum inhibition of inward Ba2+ current: 0.1 µM
N-type VGCCs = N-type VGCCs (Rattus norvegicus, UniProt Q02294); test: biochemical; format: binding
Sprague-Dawley rats = details: rat, in vivo
[2] = tested on: nerve injury model of neuropathic pain; details: rat, in vivo
[3] = tested on: excitatory synaptic transmission between primary afferents and dorsal horn superficial lamina neurons; format: cell-based, rat
[4] = tested on: mice with CFA-induced mechanical allodynia; details: mouse, in vivo, sc
[5] = target: recombinant Cav2.3 α1E (R-type) channels (α/α2δ1/β3) (Rattus norvegicus, UniProt Q07652); format: cell-based
[6] = target: recombinant Cav1.2 α1C (L-type) channels (α/α2δ1/β3) (Oryctolagus cuniculus, UniProt P15381); format: cell-based, rabbit
[7] = target: recombinant N-type (Cav2.2) VGCCs α1B-b/α2δ1/β3 (Rattus norvegicus, UniProt Q02294); test: cell-based; format: cell-based
[8] = target: recombinant Cav1.3 α1D (L-type) channels (α/α2δ1/β3) (Rattus norvegicus, UniProt P27732); format: cell-based
[9] = target: recombinant N-type (Cav2.2) VGCCs α1B-b/α2δ1/β2a (Rattus norvegicus, UniProt Q02294); format: cell-based
[10] = target: recombinant Cav2.1 α1A (P/Q-type) channels (α/α2δ1/β3) (Oryctolagus cuniculus, UniProt P27884); test: cell-based; parameters: species or system rabbit
[11] = tested on: low-voltage-activated T-type VGCC in DRG neurons; format: cell-based, rat

N-type VGCCs, sequence (Q02294 whole entry, looked up): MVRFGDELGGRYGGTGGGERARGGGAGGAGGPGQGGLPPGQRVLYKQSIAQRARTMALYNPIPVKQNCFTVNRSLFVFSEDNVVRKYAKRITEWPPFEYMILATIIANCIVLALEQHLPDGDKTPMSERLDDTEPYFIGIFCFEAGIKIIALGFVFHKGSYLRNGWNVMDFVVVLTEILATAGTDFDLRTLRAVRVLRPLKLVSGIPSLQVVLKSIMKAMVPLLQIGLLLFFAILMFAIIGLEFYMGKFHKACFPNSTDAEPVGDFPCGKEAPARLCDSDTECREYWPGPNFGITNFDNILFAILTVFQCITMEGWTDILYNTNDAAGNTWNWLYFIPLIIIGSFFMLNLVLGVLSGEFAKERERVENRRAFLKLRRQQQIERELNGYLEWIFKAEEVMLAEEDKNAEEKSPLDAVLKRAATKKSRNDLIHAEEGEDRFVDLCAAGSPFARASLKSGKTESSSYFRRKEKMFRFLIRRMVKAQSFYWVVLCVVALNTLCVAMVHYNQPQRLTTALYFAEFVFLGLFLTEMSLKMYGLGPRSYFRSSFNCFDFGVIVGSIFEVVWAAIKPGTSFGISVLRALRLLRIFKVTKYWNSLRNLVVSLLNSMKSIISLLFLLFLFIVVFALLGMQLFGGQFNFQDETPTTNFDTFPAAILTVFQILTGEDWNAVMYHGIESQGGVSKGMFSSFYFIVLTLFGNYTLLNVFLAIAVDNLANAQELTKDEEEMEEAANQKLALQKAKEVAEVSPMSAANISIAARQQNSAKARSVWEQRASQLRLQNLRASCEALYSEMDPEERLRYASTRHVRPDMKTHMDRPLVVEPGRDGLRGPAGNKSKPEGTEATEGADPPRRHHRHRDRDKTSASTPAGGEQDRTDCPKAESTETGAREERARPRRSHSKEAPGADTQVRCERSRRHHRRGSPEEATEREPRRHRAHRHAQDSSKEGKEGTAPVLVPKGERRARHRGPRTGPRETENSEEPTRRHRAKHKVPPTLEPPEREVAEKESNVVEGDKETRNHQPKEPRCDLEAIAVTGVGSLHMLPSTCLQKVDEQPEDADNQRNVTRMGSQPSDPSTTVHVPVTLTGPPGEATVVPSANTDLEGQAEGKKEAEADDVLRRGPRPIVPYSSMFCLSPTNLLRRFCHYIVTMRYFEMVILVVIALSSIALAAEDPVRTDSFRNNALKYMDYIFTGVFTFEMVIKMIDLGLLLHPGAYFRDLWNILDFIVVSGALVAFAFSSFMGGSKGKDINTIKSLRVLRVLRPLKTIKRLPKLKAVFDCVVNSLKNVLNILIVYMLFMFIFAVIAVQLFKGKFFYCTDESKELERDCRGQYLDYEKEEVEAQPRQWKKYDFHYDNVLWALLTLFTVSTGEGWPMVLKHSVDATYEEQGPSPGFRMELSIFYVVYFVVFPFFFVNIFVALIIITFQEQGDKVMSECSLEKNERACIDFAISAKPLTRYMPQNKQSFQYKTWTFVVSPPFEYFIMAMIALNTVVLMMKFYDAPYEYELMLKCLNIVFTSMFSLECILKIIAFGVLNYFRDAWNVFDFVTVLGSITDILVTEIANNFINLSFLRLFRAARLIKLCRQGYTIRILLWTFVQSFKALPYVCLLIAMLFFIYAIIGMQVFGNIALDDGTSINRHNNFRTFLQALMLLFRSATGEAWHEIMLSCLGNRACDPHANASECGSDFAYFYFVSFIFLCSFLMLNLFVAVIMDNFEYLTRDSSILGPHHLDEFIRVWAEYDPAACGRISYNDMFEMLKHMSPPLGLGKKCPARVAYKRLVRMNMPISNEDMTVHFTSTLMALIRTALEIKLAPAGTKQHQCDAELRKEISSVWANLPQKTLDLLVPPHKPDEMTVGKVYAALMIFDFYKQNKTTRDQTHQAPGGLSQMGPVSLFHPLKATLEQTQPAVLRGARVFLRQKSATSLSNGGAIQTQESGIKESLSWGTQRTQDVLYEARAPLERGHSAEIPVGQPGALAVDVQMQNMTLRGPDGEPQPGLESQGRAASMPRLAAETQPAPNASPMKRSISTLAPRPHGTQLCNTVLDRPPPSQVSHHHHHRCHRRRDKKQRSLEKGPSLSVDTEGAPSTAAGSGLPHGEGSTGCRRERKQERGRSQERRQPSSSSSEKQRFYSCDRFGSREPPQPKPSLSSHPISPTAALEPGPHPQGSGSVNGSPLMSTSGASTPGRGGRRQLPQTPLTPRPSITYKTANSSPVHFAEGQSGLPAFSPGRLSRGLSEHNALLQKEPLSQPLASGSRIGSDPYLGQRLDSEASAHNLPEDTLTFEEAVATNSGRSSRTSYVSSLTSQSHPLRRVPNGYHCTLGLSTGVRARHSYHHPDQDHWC
recombinant Cav1.3 α1D (L-type) channels (α/α2δ1/β3), sequence (P27732 whole entry, looked up): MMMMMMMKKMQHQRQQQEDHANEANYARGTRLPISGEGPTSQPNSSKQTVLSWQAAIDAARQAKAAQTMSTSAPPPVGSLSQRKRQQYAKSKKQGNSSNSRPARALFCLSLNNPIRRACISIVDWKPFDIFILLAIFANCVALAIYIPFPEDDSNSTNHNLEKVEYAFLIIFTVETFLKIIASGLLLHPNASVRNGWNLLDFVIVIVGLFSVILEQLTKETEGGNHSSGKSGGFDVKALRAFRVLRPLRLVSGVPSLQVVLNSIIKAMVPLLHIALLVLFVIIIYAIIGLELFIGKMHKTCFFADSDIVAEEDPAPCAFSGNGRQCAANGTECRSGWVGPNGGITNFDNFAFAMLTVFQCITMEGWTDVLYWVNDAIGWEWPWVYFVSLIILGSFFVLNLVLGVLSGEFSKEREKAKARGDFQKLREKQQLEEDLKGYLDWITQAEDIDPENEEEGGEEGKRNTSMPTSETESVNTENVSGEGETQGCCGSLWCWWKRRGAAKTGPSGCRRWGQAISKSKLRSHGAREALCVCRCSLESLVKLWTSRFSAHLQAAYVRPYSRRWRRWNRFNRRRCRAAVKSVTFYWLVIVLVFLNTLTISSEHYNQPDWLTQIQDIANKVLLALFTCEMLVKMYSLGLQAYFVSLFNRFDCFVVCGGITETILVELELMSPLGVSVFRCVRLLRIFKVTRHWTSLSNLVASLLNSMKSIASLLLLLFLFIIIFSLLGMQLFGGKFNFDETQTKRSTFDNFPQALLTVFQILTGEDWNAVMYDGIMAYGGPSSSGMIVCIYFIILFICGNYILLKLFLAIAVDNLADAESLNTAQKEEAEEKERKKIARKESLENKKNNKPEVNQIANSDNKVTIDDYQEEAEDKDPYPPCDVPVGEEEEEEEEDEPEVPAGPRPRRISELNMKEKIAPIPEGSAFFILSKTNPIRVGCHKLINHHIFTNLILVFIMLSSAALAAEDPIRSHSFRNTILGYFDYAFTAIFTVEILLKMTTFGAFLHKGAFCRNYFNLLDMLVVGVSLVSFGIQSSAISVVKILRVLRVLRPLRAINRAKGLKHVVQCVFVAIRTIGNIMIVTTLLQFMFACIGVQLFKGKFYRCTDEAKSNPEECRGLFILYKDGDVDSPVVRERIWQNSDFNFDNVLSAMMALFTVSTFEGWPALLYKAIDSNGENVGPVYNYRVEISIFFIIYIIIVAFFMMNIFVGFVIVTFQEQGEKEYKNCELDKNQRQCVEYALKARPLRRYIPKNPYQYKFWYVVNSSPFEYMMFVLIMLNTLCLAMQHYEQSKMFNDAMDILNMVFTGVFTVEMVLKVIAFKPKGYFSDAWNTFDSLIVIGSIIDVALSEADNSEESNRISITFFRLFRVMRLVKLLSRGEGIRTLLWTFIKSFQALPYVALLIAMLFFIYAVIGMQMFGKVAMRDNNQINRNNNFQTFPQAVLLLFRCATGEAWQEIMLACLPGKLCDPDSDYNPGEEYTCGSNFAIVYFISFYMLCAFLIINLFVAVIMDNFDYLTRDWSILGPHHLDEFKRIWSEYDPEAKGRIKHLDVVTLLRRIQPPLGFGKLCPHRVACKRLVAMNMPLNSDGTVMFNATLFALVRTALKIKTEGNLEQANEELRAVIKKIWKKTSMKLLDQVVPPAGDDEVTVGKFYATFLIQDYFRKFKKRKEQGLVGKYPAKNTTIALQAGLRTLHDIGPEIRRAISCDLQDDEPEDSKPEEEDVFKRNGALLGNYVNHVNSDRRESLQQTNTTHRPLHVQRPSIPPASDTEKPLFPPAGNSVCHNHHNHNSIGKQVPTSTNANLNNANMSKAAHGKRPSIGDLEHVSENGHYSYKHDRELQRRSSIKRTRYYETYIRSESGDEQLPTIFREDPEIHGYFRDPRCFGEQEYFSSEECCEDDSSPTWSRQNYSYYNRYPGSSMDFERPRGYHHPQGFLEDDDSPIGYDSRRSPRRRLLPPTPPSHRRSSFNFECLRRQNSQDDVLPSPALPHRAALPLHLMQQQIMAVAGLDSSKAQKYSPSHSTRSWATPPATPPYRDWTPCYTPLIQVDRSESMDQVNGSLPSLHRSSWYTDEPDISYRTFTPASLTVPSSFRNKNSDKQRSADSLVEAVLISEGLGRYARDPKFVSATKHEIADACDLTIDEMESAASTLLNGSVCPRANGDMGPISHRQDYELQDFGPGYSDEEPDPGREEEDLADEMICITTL
recombinant N-type (Cav2.2) VGCCs α1B-b/α2δ1/β2a, sequence (Q02294 whole entry, looked up): as the sequence (Q02294 whole entry, looked up) above
recombinant N-type (Cav2.2) VGCCs α1B-b/α2δ1/β3, sequence (Q02294 whole entry, looked up): as above

C[C@@H]1NC(=O)CNC(=O)[C@H](CCCCN)NC(=O)CNC(=O)[C@H](CCCCN)NC(=O)[C@@H](N)CSSC[C@@H]2NC(=O)[C@@H]3CSSC[C@@H](C(N)=O)NC(=O)[C@H](CCCNC(=N)N)NC(=O)CNC(=O)[C@H](CO)NC(=O)[C@H](CCCNC(=N)N)NC(=O)[C@H](CSSC[C@H](NC(=O)[C@H](CO)NC1=O)C(=O)N[C@@H](CCCNC(=N)N)C(=O)N[C@@H](CCCNC(=N)N)C(=O)N[C@@H]([C@@H](C)O)C(=O)N[C@@H](CO)C(=O)N[C@@H](Cc1ccc(O)cc1)C(=O)N[C@@H](CC(=O)O)C(=O)N3)NC(=O)[C@H](CO)NC(=O)CNC(=O)[C@H]([C@@H](C)O)NC2=O [CVIE, CKGKGASCRRTSYDCCTGSCRSGRC]
maximum inhibition of inward Ba2+ current [1]: ~50%
displacement of 125I-GVIA binding (N-type VGCCs): fully displaced
IC50 (N-type VGCCs; affinity): 0.037 nM
IC50 (N-type VGCCs; pIC50): 0.02 nM
side effects (shakes, tail twitching, serpentine tail movements) (Sprague-Dawley rats): substantially decreased side effects compared to CVID
relief of mechanical allodynia [2]: completely relieves mechanical allodynia; also recorded: relieved mechanical allodynia
EPSC amplitude recovered after washout [3]: 78±7 % of control
reduction of evoked monosynaptic EPSC amplitude [3]: 67±5%
reversal of incapacitance [4]: highly significant reversal of incapacitance; also recorded: subsided

C[C@@H](O)[C@@H]1NC(=O)[C@H](Cc2ccc(O)cc2)NC(=O)[C@@H]2C[C@@H](O)CN2C(=O)[C@H](CC(N)=O)NC(=O)[C@@H]2CSSC[C@@H]3NC(=O)[C@H](CO)NC(=O)[C@H](CO)NC(=O)CNC(=O)[C@@H]4C[C@@H](O)CN4C(=O)[C@H](CO)NC(=O)[C@H](CCCCN)NC(=O)[C@@H](N)CSSC[C@H](NC(=O)[C@H](CSSC[C@@H](C(=O)N[C@@H](Cc4ccc(O)cc4)C(N)=O)NC(=O)[C@H](CCCN=C(N)N)NC(=O)[C@H](CCCCN)NC1=O)NC(=O)[C@H](CC(N)=O)NC(=O)[C@H](Cc1ccc(O)cc1)NC(=O)[C@H](CO)NC(=O)[C@H]([C@@H](C)O)NC(=O)[C@@H]1C[C@@H](O)CN1C(=O)[C@H](CO)NC3=O)C(=O)N[C@@H](CCCN=C(N)N)C(=O)N[C@@H](CO)C(=O)N2 [GVIA, reference compound]
IC50 (N-type VGCCs; affinity): 0.024 nM
IC50 (N-type VGCCs; pIC50): 0.0251 nM

CC(C)C[C@@H]1NC(=O)[C@H](CCCNC(=N)N)NC(=O)[C@@H]2CSSC[C@@H]3NC(=O)[C@H](CO)NC(=O)[C@H](C)NC(=O)CNC(=O)[C@H](CCCCN)NC(=O)CNC(=O)[C@H](CCCCN)NC(=O)[C@@H](N)CSSC[C@H](NC(=O)[C@H](CSSC[C@@H](C(N)=O)NC(=O)[C@H](CCCNC(=N)N)NC(=O)CNC1=O)NC(=O)[C@H](CC(=O)O)NC(=O)[C@H](Cc1ccc(O)cc1)NC(=O)[C@H](CO)NC(=O)[C@H]([C@@H](C)O)NC(=O)[C@H](CCCCN)NC(=O)[C@H](CCCNC(=N)N)NC3=O)C(=O)N[C@@H]([C@@H](C)O)C(=O)NCC(=O)N[C@@H](CO)C(=O)N2 [[R10K]CVIF] (HELM PEPTIDE1{C.K.G.K.G.A.S.C.R.K.T.S.Y.D.C.C.T.G.S.C.R.L.G.R.C.[am]}$PEPTIDE1,PEPTIDE1,1:R3-16:R3|PEPTIDE1,PEPTIDE1,8:R3-20:R3|PEPTIDE1,PEPTIDE1,15:R3-25:R3$$$V2.0)
effect on Cav2.3 channels [5]: neither [R10K]CVIE or [R10K]CVIF had any effect
effect on Cav1.2 channels [6]: neither [R10K]CVIE or [R10K]CVIF had any effect
side effects (shakes, tail twitching, serpentine tail movements) (Sprague-Dawley rats): substantially decreased side effects compared to CVID
Hill slope [7]: 0.65±0.04
effect on Cav1.3 channels [8]: neither [R10K]CVIE or [R10K]CVIF had any effect
relief of mechanical allodynia [2]: relieved mechanical allodynia
reversal of incapacitance [4]: highly significant reversal of incapacitance; also recorded: sustained
Hill slope [9]: 0.86±0.04
effect on Cav2.1 channels [10]: neither [R10K]CVIE or [R10K]CVIF had any effect

CC(C)C[C@@H]1NC(=O)[C@H](CCCNC(=N)N)NC(=O)[C@@H]2CSSC[C@@H]3NC(=O)[C@H](CO)NC(=O)[C@H](C)NC(=O)CNC(=O)[C@H](CCCCN)NC(=O)CNC(=O)[C@H](CCCCN)NC(=O)[C@@H](N)CSSC[C@H](NC(=O)[C@H](CSSC[C@@H](C(N)=O)NC(=O)[C@H](CCCNC(=N)N)NC(=O)CNC1=O)NC(=O)[C@H](CC(=O)O)NC(=O)[C@H](Cc1ccc(O)cc1)NC(=O)[C@H](CO)NC(=O)[C@H]([C@@H](C)O)NC(=O)[C@H](CCCNC(=N)N)NC(=O)[C@H](CCCNC(=N)N)NC3=O)C(=O)N[C@@H]([C@@H](C)O)C(=O)NCC(=O)N[C@@H](CO)C(=O)N2 [CVIF] (HELM PEPTIDE1{C.K.G.K.G.A.S.C.R.R.T.S.Y.D.C.C.T.G.S.C.R.L.G.R.C.[am]}$PEPTIDE1,PEPTIDE1,1:R3-16:R3|PEPTIDE1,PEPTIDE1,8:R3-20:R3|PEPTIDE1,PEPTIDE1,15:R3-25:R3$$$V2.0)
effect on P/Q- and L-type VGCC current components [1]: does not affect
maximum inhibition of inward Ba2+ current [1]: ~50%
displacement of 125I-GVIA binding (N-type VGCCs): fully displaced
side effects (shakes, tail twitching, serpentine tail movements) (Sprague-Dawley rats): substantially decreased side effects compared to CVID
effect on T-type current [11]: not affected
relief of mechanical allodynia [2]: completely relieves mechanical allodynia; also recorded: relieved mechanical allodynia
EPSC amplitude recovered after washout [3]: 73±10 % of control
reduction of evoked monosynaptic EPSC amplitude [3]: 61±7%
reversal of incapacitance [4]: significant reversal of incapacitance; also recorded: subsided
